According to US8785638B2, “Thieno [2, 3-B] pyridine derivatives as viral replication inhibitors” (Katholieke Universiteit Leuven, priority 2009, dated 2014):
Where two headings read alike, the source gives them in different places.

Experiments:
[1] = molecular target: LEDGF/p75-HIV-1 integrase interaction (Human immunodeficiency virus type 1 group M subtype B (isolate HXB2) (HIV-1), UniProt P04585); assay: AlphaScreen assay of LEDGF-integrase interaction inhibition; type: binding
In short: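 Compounds (0.1 up to 100 μM) pre-incubated 30 min at 4° C. with 300 nM His6-integrase in pH 7.4 Tris buffer, then 100 nM flag-LEDGF/p75 added for 1 h at 4° C. Ni-chelate acceptor and anti-flag donor beads (20 μg/ml each) were incubated 1 h at 30° C. before reading AlphaScreen emission.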

[2] = tested on: HIV-1 (IIIB), HIV-1 (NL4.3); assay: microbe, parasite or virus in culture; type: cell-based; conditions: for EC50: Human immunodeficiency virus 1, IIIB, MT4, MT-4 cells, 50% protection against HIV-induced cytopathogenic effect, MTT; for SI: selectivity index, ratio of CC50 to EC50
In short: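 MT-4 cells infected with HIV-1 IIIB or NL4.3; protection from virus-induced cytopathic effect measured by MTT reduction, OD 540 nm. EC50 is the dose giving 50% protection; CC50 is the concentration cutting mock-infected absorbance by 50%; SI = CC50/EC50.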

[3] = Cytotoxicity in mock-infected MT-4 cells (MTT); type: cell-based; conditions: human, 50% cytotoxic concentration
In short: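 MT-4 cells (HTLV-1-transformed T4 line) in RPMI 1640 with 10% FCS, mock-infected alongside HIV-infected cultures. Viability read by in situ MTT reduction, OD 540 nm. CC50 is the compound concentration cutting mock-infected control absorbance by 50%.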

[4] = His6-tagged integrase 300 nM, flag-LEDGF/p75 100 nM, read-out: Alphascreen IC50

Compound: CCCC(C(N)=O)c1c(C)nc2sc3c(c2c1-c1ccc(C)cc1)CCCC3 (stereo not drawn) [Cpd 167, 2-[2-Methyl-4-p-tolyl-5,6,7,8-tetrahydro[1]benzothieno[2,3-b]pyridin-3-yl]pentanamide]
- IC50 [1, 4]: 63.7 µM
- EC50 [2]: > 26.1 µM
- CC50 [3]: 26.1 µM

Compound: Cc1ccc(-c2c(C(OC(C)(C)C)C(=O)O)c(C)nc3sc4c(c23)CCCC4)cc1 (stereo not drawn) [Cpd 170, 2-[2-Methyl-4-p-tolyl-5,6,7,8-tetrahydro[1]benzothieno[2,3-b]pyridin-3-yl]-2-tert-butoxyacetic acid]
- IC50 [1, 4]: 0.05 µM
- EC50 [2]: 0.0263 µM
- SI [2]: 4429
- CC50 [3]: 116 µM

Compound: CCOC(C(=O)O)c1c(C)nc2sc3c(c2c1-c1ccc(C)cc1)CCCC3 (stereo not drawn) [Cpd 171, 2-[2-Methyl-4-p-tolyl-5,6,7,8-tetrahydro[1]benzothieno[2,3-b]pyridin-3-yl]-2-ethoxyacetic acid]
- IC50 [1, 4]: 1.21 µM
- EC50 [2]: 0.112 µM
- SI [2]: 1166
- CC50 [3]: 130 µM

Compound: Cc1nc2sc3c(c2c(-c2cccnc2)c1C(OC(C)(C)C)C(=O)O)CCCC3 (stereo not drawn) [Cpd 173, 2-[2-Methyl-4-(pyridin-3-yl)-5,6,7,8-tetrahydro[1]benzothieno[2,3-b]pyridin-3-yl]-2-tert-butoxyacetic acid]
- IC50 [1, 4]: 5.9 µM
- EC50 [2]: 4.51 µM
- SI [2]: 50
- CC50 [3]: 225 µM

Compound: CCCC(c1nnn[nH]1)c1c(C)nc2sc3c(c2c1-c1ccc(C)cc1)CCCC3 (stereo not drawn) [Cpd 175, 2-Methyl-4-(p-tolyl)-3-[1-(1H-tetrazol-5-yl)butyl]-5,6,7,8-tetrahydro[1]benzothieno[2,3-b]pyridine]
- IC50 [1, 4]: < 1 µM
- EC50 [2]: 8.89 µM
- SI [2]: 9
- CC50 [3]: 79.2 µM

Compound: Cc1nc2sc3c(c2c(-c2cnn(C)c2)c1C(OC(C)(C)C)C(=O)O)CCCC3 (stereo not drawn) [Cpd 177, 2-[2-methyl-4-(1-methyl-1H-pyrazol-4-yl)-5,6,7,8-tetrahydro[1]benzothieno[2,3-b]pyridin-3-yl]-2-tert-butoxyacetic acid]
- IC50 [1, 4]: 11.7 µM
- EC50 [2]: 1.17 µM
- SI [2]: >181
- CC50 [3]: > 212 µM

Compound: CCCC(C(=O)O)c1c(CC)nc2sc3c(c2c1-c1ccc(C)cc1)CCCC3 (stereo not drawn) [Cpd 181, 2-[2-ethyl-4-(p-tolyl)-5,6,7,8-tetrahydro[1]benzothieno[2,3-b]pyridin-3-yl]pentanoic acid]
- IC50 [1, 4]: 8.06 µM
- EC50 [2]: 2.89 µM
- SI [2]: 28
- CC50 [3]: 81 µM

Compound: CCCC(c1c(C)nc2sc3c(c2c1-c1ccc(C)cc1)CCCC3)C1SC(=O)NC1=O (stereo not drawn) [Cpd 182]
- IC50 [1]: ~80 µM
- EC50 [2]: > 27.3 µM
- CC50 [3]: 27.3 µM

Compound: Cc1ccc(-c2c(C(OC(C)(C)C)C(=O)O)c(C)nc3sc4c(c23)CCCC4)cn1 (stereo not drawn) [Cpd 184, 2-[2-methyl-4-(6-methylpyridin-3-yl)-5,6,7,8-tetrahydro[1]benzothieno[2,3-b]pyridin-3-yl]-2-tert-butoxyacetic acid]
- IC50 [1, 4]: 3.44 µM
- EC50 [2]: 0.157 µM
- SI [2]: 1513
- CC50 [3]: 237 µM

Compound: Cc1nc2sc3c(c2c(-c2ccc4ncsc4c2)c1C(OC(C)(C)C)C(=O)O)CCCC3 (stereo not drawn) [Cpd 186, 2-[2-methyl-4-(benzo[d]thiazol-6-yl)-5,6,7,8-tetrahydro[1]benzothieno[2,3-b]pyridin-3-yl]-2-tert-butoxyacetic acid]
- IC50 [1, 4]: 0.43 µM
- EC50 [2]: 0.038 µM
- SI [2]: 2900
- CC50 [3]: 110 µM

Compound: Cc1nc2sc3c(c2c(-c2ccc4c5c(ccnc25)CCO4)c1C(OC(C)(C)C)C(=O)O)CCCC3 (stereo not drawn) [Cpd 190]
- IC50 [1]: 0.37 µM
- EC50 [2]: 0.015 µM
- SI [2]: 8401
- CC50 [3]: 129 µM
